Test results from patent US9545386B2, “Methods of treating infectious diseases” (SLIPPERY ROCK UNIVERSITY FOUNDATION, INC., priority 2007, dated 2017).
In brackets after ≈: the same amount, converted by molar mass.

Columns and labels:
T. avium trypomastigotes = assay: Short-term behavioral study (swimming behavior and maneuverability); type: cell-based, Trypanosoma avium; conditions: 75 μl eryngial (1%) and Triton X-100 (0.04%) added to 75 μl T. avium; observed at 15-minute intervals for 1 hr
Method: A short-term behavioral study also was conducted by adding 75 μl of eryngial (1%) and Triton X-100 (0.04%) to 75 μl of L.N.S. with T. avium (1.0×10^5 trypomastigotes/ml). The swimming behavior and maneuverability of the organisms were observed microscopically in triplicate samples at 15-minute intervals for 1 hr. This was recorded with a digital video camera.

Escherichia coli = assay: Antibacterial MIC, 96 well broth dilution; type: cell-based; conditions: E. coli (gram-negative), 24 hr, 0.02% Triton X-100, highest concentration tested 10 mg/ml
Method: (§1) Bacterial cultures were obtained from the American Type Culture Collection (ATCC), except for Streptococcus pyogenes, which was started from a Difco Bactrol disc. The other organisms were Enterococcus faecalis, Staphylococcus aureus, Escherichia coli, Salmonella typhimurium and Pseudomonas aeruginosa. Cultures were grown in Luria-Bertani (LB) broth. Fungi were obtained from Carolina Biological Supply Company (Aspergillus niger, Candida albicans and Cryptococcus neoformans); Presque Isle Cultures, Erie Pa. (Microsporum gypseum); or from ATCC (Penicillium marneffei). Fungal cultures were maintained in Sabouraud dextrose broth (SDB) or agar (SDA). All media components came from Difco.
(§2) Tests were done in flat-bottomed 96 well cell culture plates (Costar). All samples were done in duplicate. Eryngial was suspended in culture medium plus 0.04% Triton-X to make a 2% (20 mg/ml) suspension, which was passed through a 0.22 μm filter to make a uniform emulsion. Serial doubling dilutions of eryngial in culture medium plus 0.04% Triton-X were prepared, and 75 μl was added to each well. 75 μl of cell or spore suspensions in culture medium also were added to each well. The final concentration of Triton-X was 0.02%, and the final concentration of eryngial was 1% (10 mg/ml) at the highest concentration tested.
(§3) Overnight bacterial cultures in LB medium were diluted into fresh LB to an OD600 of 0.02 to 0.03, and then diluted 1000-fold again in LB. […] Blank wells for each concentration of eryngial were prepared with plain culture medium added.
(§4) The 96 well plates were incubated at 37° for 24 hr (in a candle jar for S. pyogenes), and the OD630 was read on an EL800 universal microplate reader (Bio-Tek Instruments). Readings from duplicate wells were averaged, and readings from duplicate blank wells for each concentration of eryngial were subtracted to generate the final values. The minimum inhibitory concentration (MIC, μg/ml) was defined as the well with the highest dilution of eryngial in which no growth was observed.

Pseudomonas aeruginosa = assay: Antibacterial MIC, 96 well broth dilution; type: cell-based; conditions: P. aeruginosa (gram-negative), 24 hr, 0.02% Triton X-100, highest concentration tested 10 mg/ml
Method: as §1, §2, §3, §4

Salmonella typhimurium = assay: Antibacterial MIC, 96 well broth dilution; type: cell-based; conditions: S. typhimurium (gram-negative), 24 hr, 0.02% Triton X-100, highest concentration tested 10 mg/ml
Method: as §1, §2, §3, §4

Aspergillus niger = assay: Antifungal MIC/MFC, 96 well broth dilution; type: cell-based; conditions: A. niger; MIC and MFC not determined
Method: as §1, §2
(§5) Dimethyl sulfoxide (DMSO) also was used as a solvent for eryngial. A solution of 12.5% eryngial in DMSO was the initial solution. Doubling dilutions were carried out in DMSO. The DMSO-eryngial solutions were diluted 100-fold into growth medium, resulting in a final concentration of 1% DMSO, and 0.125% (1,250 μg/ml) eryngial as the highest concentration tested.
(§6) The yeast form fungi, Candida albicans and Cryptococcus neoformans, were grown overnight in SDB. Cell density was determined by counting in a hemacytometer. Cells were diluted in fresh SDB to a density of 10^4/ml, and 75 μl, or 7.5×10^2 cells, was added to each well. The filamentous form fungi, Aspergillus niger, Microsporum gypseum and Penicillium marneffei, were grown on SDA until spores formed. The surface of the culture was rinsed vigorously with sterile distilled water to make a spore suspension, which was counted with a hemacytometer. The spores were diluted into SDB at 10^4/ml, and 75 μl, or 7.5×10^2 spores, were added to each well. The 96 well plates were incubated at room temperature in a humidified chamber for up to 96 hr, and culture growth was monitored microscopically. Growth was documented by photomicrographs at 24 hr intervals, and by determining OD630 in the microplate reader as for the bacterial cultures.
(§7) To determine whether eryngial was merely inhibiting growth of the bacteria and fungi, or whether it also was having a killing effect, the minimum bactericidal concentrations (MBC, μg/ml) or minimum fungicidal concentrations (MFC, μg/ml) were determined. This was done by removing a 50 μl sample from a well after 24 hr (bacteria) or 96 hr (fungi) and diluting the samples in 5 ml of fresh culture medium. These tubes then were incubated at the appropriate temperature for 24-96 hr and observed for any signs of growth.

Candida albicans = assay: Antifungal MIC/MFC, 96 well broth dilution; type: cell-based; conditions: C. albicans, 48-96 hr in vitro
Method: as §1, §2, §5, §6, §7

Cryptococcus neoformans = assay: Antifungal MIC/MFC, 96 well broth dilution; type: cell-based; conditions: C. neoformans, 48-96 hr in vitro
Method: as §1, §2, §5, §6, §7

Microsporum gypseum = assay: Antifungal MIC/MFC, 96 well broth dilution; type: cell-based; conditions: Nannizzia gypsea, M. gypseum, 48-96 hr in vitro
Method: as §1, §2, §5, §6, §7

Penicillium marneffei = assay: Antifungal MIC/MFC, 96 well broth dilution; type: cell-based; conditions: Talaromyces marneffei, P. marneffei, 48-96 hr in vitro
Method: as §1, §2, §5, §6, §7

S. stercoralis L3 larvae = conditions: after 120 hr of incubation, Forbes et al. (unpublished); cited from earlier work

CCCCCCCCC/C=C/C=O [Eryngial, trans-2-dodecenal]
swimming behavior and maneuverability of trypomastigotes (T. avium trypomastigotes): movement was completely stopped
inhibited by eryngial (Escherichia coli): none
inhibited by eryngial (Pseudomonas aeruginosa): none
inhibited by eryngial (Salmonella typhimurium): none
growth in dilutions of the test compound (Aspergillus niger): growth, albeit reduced, occurred in all dilutions
MIC (Candida albicans): 391 µg/mL (≈ 2140 µM)
MBC (Candida albicans; table title says MFCs): 391 µg/mL (≈ 2140 µM)
MIC (Cryptococcus neoformans): 78 µg/mL (≈ 428 µM)
MBC (Cryptococcus neoformans; table title says MFCs): 78 µg/mL (≈ 428 µM)
MIC (Microsporum gypseum): 39 µg/mL (≈ 214 µM)
MBC (Microsporum gypseum; table title says MFCs): 39 µg/mL (≈ 214 µM)
MIC (Penicillium marneffei): 39 µg/mL (≈ 214 µM)
MBC (Penicillium marneffei; table title says MFCs): 39 µg/mL (≈ 214 µM)
increase in effectiveness over ivermectin based on time (hr) taken to kill 50% (LT50) (S. stercoralis L3 larvae): 7.1 fold
